Some results are limits rather than exact numbers.

human TYK2 (JH2domain-pseudokinase), sequence (P29597 556-888): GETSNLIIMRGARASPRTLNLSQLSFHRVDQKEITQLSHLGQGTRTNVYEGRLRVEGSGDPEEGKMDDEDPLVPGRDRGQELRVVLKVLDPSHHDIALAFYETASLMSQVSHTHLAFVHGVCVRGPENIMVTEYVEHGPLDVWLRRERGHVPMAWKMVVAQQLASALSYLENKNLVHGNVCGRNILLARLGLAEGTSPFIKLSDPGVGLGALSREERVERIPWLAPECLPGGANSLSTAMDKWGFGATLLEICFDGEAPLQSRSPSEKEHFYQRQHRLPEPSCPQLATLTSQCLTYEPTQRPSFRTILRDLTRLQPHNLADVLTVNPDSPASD

This experiment addresses human TYK2 (JH2domain-pseudokinase) (Homo sapiens (Human), UniProt P29597). Kind of experiment: TYK2 JH2 Domain Binding Assay (KINOMEscan). The settings on record: Table 4, JH2 binding assay; read-out: JH2 Kd.
Regarding `COc1c(F)cccc1Nc1cc(Nc2ccc(C)cn2)nc2[nH]n(C)c(=O)c12` [Compound I-84, 4-((3-fluoro-2-methoxyphenyl)amino)-2-methyl-6-((5-methylpyridin-2-yl)amino)-1,2-dihydro-3H-pyrazolo[3,4-b]pyridin-3-one], the Kd fell in the range of 1 to 10 nM. In the case of `COc1c(F)cccc1Nc1cc(Nc2cncc(C#N)n2)nc2[nH]n(C)c(=O)c12` [Compound I-85, 6-((4-((3-fluoro-2-methoxyphenyl)amino)-2-methyl-3-oxo-2,3-dihydro-1H-pyrazolo[3,4-b]pyridin-6-yl)amino)pyrazine-2-carbonitrile], the dissociation constant (Kd) was in the range of 0.5 to 1 nM. Then `COc1c(F)cccc1Nc1cc(Nc2cccc(C(F)(F)F)n2)nc2[nH]n(C)c(=O)c12` [Compound I-86, 4-((3-fluoro-2-methoxyphenyl)amino)-2-methyl-6-((6-(trifluoromethyl)pyridin-2-yl)amino)-1,2-dihydro-3H-pyrazolo[3,4-b]pyridin-3-one], with 1 to 10 nM; and `COc1c(F)cccc1Nc1cc(Nc2cccc(C3CC3)n2)nc2[nH]n(C)c(=O)c12` [Compound I-87, 6-((6-cyclopropylpyridin-2-yl)amino)-4-((3-fluoro-2-methoxyphenyl)amino)-2-methyl-1,2-dihydro-3H-pyrazolo[3,4-b]pyridin-3-one], with 1 to 10 nM; and `COc1c(Nc2cc(NC(=O)C3CC3)nc3[nH]n(C)c(=O)c23)cccc1N1CCCC1=O` [Compound I-88, N-(4-((2-methoxy-3-(2-oxopyrrolidin-1-yl)phenyl)amino)-2-methyl-3-oxo-2,3-dihydro-1H-pyrazolo[3,4-b]pyridin-6-yl)cyclopropanecarboxamide], with 1 to 10 nM. As to `COc1c(F)cccc1Nc1cc(Nc2ccc(N3CCOCC3)cn2)nc2[nH]n(C)c(=O)c12` [Compound I-89, 4-((3-fluoro-2-methoxyphenyl)amino)-2-methyl-6-((5-morpholinopyridin-2-yl)amino)-1,2-dihydro-3H-pyrazolo[3,4-b]pyridin-3-one], the equilibrium dissociation constant (Kd) fell in the range of 1 to 10 nM. As to `COc1c(F)cccc1Nc1cc(Nc2ccc(N3CCCC3)cn2)nc2[nH]n(C)c(=O)c12` [Compound I-90, 4-((3-fluoro-2-methoxyphenyl)amino)-2-methyl-6-((5-(pyrrolidin-1-yl)pyridin-2-yl)amino)-1,2-dihydro-3H-pyrazolo[3,4-b]pyridin-3-one], the Kd was over 10 nM. Then `COc1c(F)cccc1Nc1cc(Nc2ccc(C3CC3)cn2)nc2[nH]n(C)c(=O)c12` [Compound I-91, 6-((5-cyclopropylpyridin-2-yl)amino)-4-((3-fluoro-2-methoxyphenyl)amino)-2-methyl-1,2-dihydro-3H-pyrazolo[3,4-b]pyridin-3-one], with 1 to 10 nM; and `COCc1ccc(Nc2cc(Nc3ccc(C(=O)N4CCCC4)c(C(F)(F)F)n3)nc3[nH]n(C)c(=O)c23)c(OC)c1` [Compound I-92, 4-((2-methoxy-4-(methoxymethyl)phenyl)amino)-2-methyl-6-((5-(pyrrolidine-1-carbonyl)-6-(trifluoromethyl)pyridin-2-yl)amino)-1,2-dihydro-3H-pyrazolo[3,4-b]pyridin-3-one], with 0.1 to 0.5 nM; and `COCc1ccc(Nc2cc(Nc3ccc(C)c(C(F)(F)F)n3)nc3[nH]n(C)c(=O)c23)c(OC)c1` [Compound I-93, 4-((2-methoxy-4-(methoxymethyl)phenyl)amino)-2-methyl-6-((5-methyl-6-(trifluoromethyl)pyridin-2-yl)amino)-1,2-dihydro-3H-pyrazolo[3,4-b]pyridin-3-one], with 1 to 10 nM. The value for `COc1c(F)cccc1Nc1cc(Nc2cccc(N3CC(OC)C3)n2)nc2[nH]n(C)c(=O)c12` [Compound I-94, 4-((3-fluoro-2-methoxyphenyl)amino)-6-((6-(3-methoxyazetidin-1-yl)pyridin-2-yl)amino)-2-methyl-1,2-dihydro-3H-pyrazolo[3,4-b]pyridin-3-one] was 1 to 10 nM. As to `COc1c(Cl)cccc1Nc1cc(Nc2cc(C)c(F)cn2)nc2[nH]n(C)c(=O)c12` [Compound I-95, 4-((3-chloro-2-methoxyphenyl)amino)-6-((5-fluoro-4-methylpyridin-2-yl)amino)-2-methyl-1,2-dihydro-3H-pyrazolo[3,4-b]pyridin-3-one], the Kd was in the range of 1 to 10 nM.

In the case of `COc1c(Cl)cccc1Nc1cc(Nc2cc(C)nc(C)n2)nc2[nH]n(C)c(=O)c12` [Compound I-96, 4-((3-chloro-2-methoxyphenyl)amino)-6-((2,6-dimethylpyrimidin-4-yl)amino)-2-methyl-1,2-dihydro-3H-pyrazolo[3,4-b]pyridin-3-on], the dissociation constant Kd lay in the range of 0.1 to 0.5 nM. With `COCc1ccnc(Nc2cc(Nc3cccc(Cl)c3OC)c3c(=O)n(C)[nH]c3n2)c1` [Compound I-97, 4-((3-chloro-2-methoxyphenyl)amino)-6-((4-(methoxymethyl)pyridin-2-yl)amino)-2-methyl-1,2-dihydro-3H-pyrazolo[3,4-b]pyridin-3-one], the Kd lay within 0.5 to 1 nM. The value for `COc1c(Cl)cccc1Nc1cc(Nc2ccc(C#N)cn2)nc2[nH]n(C)c(=O)c12` [Compound I-98, 6-((4-((3-chloro-2-methoxyphenyl)amino)-2-methyl-3-oxo-2,3-dihydro-1H-pyrazolo[3,4-b]pyridin-6-yl)amino)nicotinonitrile] was 0.5 to 1 nM; that for `COc1c(Cl)cccc1Nc1cc(Nc2cccc(C#N)n2)nc2[nH]n(C)c(=O)c12` [Compound I-99, 6-((4-((3-chloro-2-methoxyphenyl)amino)-2-methyl-3-oxo-2,3-dihydro-1H-pyrazolo[3,4-b]pyridin-6-yl)amino)picolinonitrile] was 0.5 to 1 nM; that for `[2H]C([2H])([2H])n1[nH]c2nc(NC(=O)C3CC3)cc(Nc3cccc(-c4nnn(C)n4)c3OC)c2c1=O` [Compound I-100] was under 0.1 nM. Consider `COc1c(Cl)cccc1Nc1cc(Nc2cc(CO)ccn2)nc2[nH]n(C)c(=O)c12` [Compound I-101, 4-((3-chloro-2-methoxyphenyl)amino)-6-((4-(hydroxymethyl)pyridin-2-yl)amino)-2-methyl-1,2-dihydro-3H-pyrazolo[3,4-b]pyridin-3-one], for which the Kd lay in the range of 1 to 10 nM. Take `COc1c(Nc2cc(NC(=O)C3CC3)nc3[nH]n(C)c(=O)c23)cccc1C(N)=O` [Compound I-102, 3-((6-(cyclopropanecarboxamido)-2-methyl-3-oxo-2,3-dihydro-1H-pyrazolo[3,4-b]pyridin-4-yl)amino)-2-methoxybenzamide]: the Kd is over 10 nM.

Consider `COc1c(Nc2cc(Nc3cc(C)nc(C)n3)nc3[nH]n(C)c(=O)c23)cccc1C(N)=O` [Compound I-103, 3-((6-((2,6-dimethylpyrimidin-4-yl)amino)-2-methyl-3-oxo-2,3-dihydro-1H-pyrazolo[3,4-b]pyridin-4-yl)amino)-2-methoxybenzamide], for which the Kd is over 10 nM. On to `COCc1ccc(Nc2cc(Nc3ccc(OC)c(C(F)(F)F)n3)nc3[nH]n(C)c(=O)c23)c(OC)c1` [Compound I-104, 4-((2-methoxy-4-(methoxymethyl)phenyl)amino)-6-((5-methoxy-6-(trifluoromethyl)pyridin-2-yl)amino)-2-methyl-1,2-dihydro-3H-pyrazolo[3,4-b]pyridin-3-one], for which the Kd is over 10 nM. For the compound `COc1c(Cl)cccc1Nc1cc(Nc2ccc(C)nn2)nc2[nH]n(C)c(=O)c12` [Compound I-105, 4-((3-chloro-2-methoxyphenyl)amino)-2-methyl-6-((6-methylpyridazin-3-yl)amino)-1,2-dihydro-3H-pyrazolo[3,4-b]pyridin-3-one], the Kd was 1 to 10 nM. The value for `COc1c(Nc2cc(Nc3cc(C)c(F)cn3)nc3[nH]n(C)c(=O)c23)cccc1C(N)=O` [Compound I-106] was 1 to 10 nM. `Cc1cc(Nc2cc(Nc3ccccc3S(C)(=O)=O)c3c(=O)n(C)[nH]c3n2)ncc1F` [Compound I-107, 6-((5-fluoro-4-methylpyridin-2-yl)amino)-2-methyl-4-((2-(methylsulfonyl)phenyl)amino)-1,2-dihydro-3H-pyrazolo[3,4-b]pyridin-3-one]: the Kd is 0.1 to 0.5 nM.

Regarding `Cc1cc(Nc2cc(Nc3ccccc3S(C)(=O)=O)c3c(=O)n(C)[nH]c3n2)nc(C)n1` [Compound I-108, 6-((2,6-dimethylpyrimidin-4-yl)amino)-2-methyl-4-((2-(methylsulfonyl)phenyl)amino)-1,2-dihydro-3H-pyrazolo[3,4-b]pyridin-3-one], the Kd was in the range of 0.1 to 0.5 nM.

Take `Cc1ccc(Nc2cc(Nc3ccccc3S(C)(=O)=O)c3c(=O)n(C)[nH]c3n2)nn1` [Compound I-109, 2-methyl-6-((6-methylpyridazin-3-yl)amino)-4-((2-(methylsulfonyl)phenyl)amino)-1,2-dihydro-3H-pyrazolo[3,4-b]pyridin-3-one]: the Kd lay within 0.1 to 0.5 nM. Then `COCc1ccnc(Nc2cc(Nc3ccccc3S(C)(=O)=O)c3c(=O)n(C)[nH]c3n2)c1` [Compound I-110, 6-((4-(methoxymethyl)pyridin-2-yl)amino)-2-methyl-4-((2-(methylsulfonyl)phenyl)amino)-1,2-dihydro-3H-pyrazolo[3,4-b]pyridin-3-one], with 1 to 10 nM; and `Cc1ccc(Nc2cc(Nc3ccccc3S(C)(=O)=O)c3c(=O)n(C)[nH]c3n2)nc1` [Compound I-111, 2-methyl-6-((5-methylpyridin-2-yl)amino)-4-((2-(methylsulfonyl)phenyl)amino)-1,2-dihydro-3H-pyrazolo[3,4-b]pyridin-3-one], with 0.1 to 0.5 nM. Consider `Cn1[nH]c2nc(Nc3cccc(C#N)n3)cc(Nc3ccccc3S(C)(=O)=O)c2c1=O` [Compound I-112, 6-((2-methyl-4-((2-(methylsulfonyl)phenyl)amino)-3-oxo-2,3-dihydro-1H-pyrazolo[3,4-b]pyridin-6-yl)amino)picolinonitrile], for which the dissociation constant (Kd) is under 0.1 nM.

For `Cn1[nH]c2nc(Nc3cccc(C(F)(F)F)n3)cc(Nc3ccccc3S(C)(=O)=O)c2c1=O` [Compound I-113, 2-methyl-4-((2-(methylsulfonyl)phenyl)amino)-6-((6-(trifluoromethyl)pyridin-2-yl)amino)-1,2-dihydro-3H-pyrazolo[3,4-b]pyridin-3-one], the Kd was in the range of 0.1 to 0.5 nM.

Values taken from patent publication US10323036B2 (Nimbus Lakshmi, Inc., priority 2016, dated 2019).
